Reference: patent US20070048329A1, “Epstein barr virus peptide epitopes, polyepitopes and delivery system therefor” (priority 2002, published 2007)
Entries after “also recorded” stand apart in the source; their conditions may differ.

Experiments:
[1] = tested on: peptide-sensitised PHA blasts and LCLs; assay: 51Cr-release cytotoxicity assay with peptide-specific CTL lines and clones; type: cell-based, human; details: serial dilutions of peptide, compared with wild-type YLLEMLWRL, CTL clone SB7
Experimental: Polyclonal CTL lines and LMP1-specific CTL clones were established according to previously published methods (Moss 1988; Khanna 1998). Briefly, 2×10^6 PBMCs were stimulated with 1×10^6 autologous lymphocytes (responder to stimulator ratio of 2:1) pulsed with 10 μM peptide for 1 hr in 2 ml in a 24-well plate. After 3 days, culture medium with IL-2 (10 U/ml) was added and the cells were further expanded. These lymphocytes were restimulated on day 7 with γ-irradiated (8000 rad) autologous LCLs. After 10 days in culture medium, the cells were used as polyclonal effectors in a standard ^51Cr-release assay against peptide-sensitised autologous PHA blasts.
To generate peripheral blood CTL clones specific for the LMP1 derived peptides, PBMCs of healthy donors were reactivated (2×10^6) PBMCs with peptide-sensitised (10 ug of peptide/ml) autologous lymphocytes (1×10^6) in 2 ml wells of a 24-well plate in culture medium. After 3 days, the cells were seeded onto 0.35% agarose and maintained in T cell growth medium containing rIL2 (50 IU/ml). After another 3 days, growing clones were transferred to 96-well round-bottom tissue culture plates (Life Technologies) and cultured in T cell growth medium containing rIL2 (50-100 IU/ml).
Target cells were pre-sensitized with synthetic peptide epitopes and then incubated with ^51Cr for 90 min. Following incubation, these cells were washed in growth medium and used as targets in a standard 5 h ^51Cr-release assay (Moss, 1988)
To further characterize the minimal T cell epitopes defined by ELISPOT assays we generated polyclonal and clonal CTL lines specific for these epitopes. PBMCs from the healthy seropositive donors were stimulated with synthetic peptide epitopes and the CTL clones or polyclonal lines were established and tested in standard ^51Cr-release assays. The […] peptide-specific CTL clones were generated using initial stimulation with peptide-sensitized autologous PBMC followed by continuous restimulation with irradiated autologous LCL. These CTL clones were screened for […]-specific CTL activity by ^51Cr release assays against peptide-sensitised autologous and allogeneic PHA blast and LCLs. […] Titration of this minimal epitope on autologous PHA blasts further confirmed the fine specificity of this CTL clone (FIG. 5B).

HLA A2 = HLA A2 (Homo sapiens, UniProt P04439, D140Y/D185E/D98H/E176V/E277Q/G131W/G231S/I119V/I121R/I166T/I218V/L300P/L318F/N151K/N90K/P208A/P217A/Q86G/Q94H/R138H/R169H/T345S); assay: MHC stabilisation assay on T2 cells; type: cell-based; design: endogenous in cells; host or cells: T2 (.174×CEM.T2), TAP-negative B×T hybrid cell line; details: 14-16 h at 26° C. then 2-3 h at 37° C., FACS
Experimental: FIG. 7: A: CTL recognition of variant and prototypic BLA A2-restricted LMP1 epitope […]. PHA blasts were sensitized with serial dilutions of each of the peptides and then exposed to either the […]-specific CTL clone, SB7. B: MHC stabilization analysis on T2 cells using variant and prototypic HLA A2-restricted LMP1 epitope. T2 cells were initially incubated with 200 μl of each of the peptides (10 μg/ml) for 14-16 h at 26° C. followed by incubation at 37° C. for 2-3 h. HLA A2 expression on these cells was analysed by FACS using HLA A2-specific monoclonal antibody.
To assess MHC binding by the HLA A2-restricted LMP1 epitope variants from EBV isolates, T2 cells (2×10^5) were incubated with 200 μl of each of the peptides (100 μg/ml) at 26° C. for 14-16 h, followed by incubation at 37° C. for 2-3 h. After the incubations, HLA A2 expression was measured by FACS using a specific monoclonal antibody (HB82, ATCC).

CD8+ CTL = assay: Immunization of HLA A2/K^b transgenic mice, epitope-specific T cell responses; details: mouse, in vivo
Description: HLA A2/K^b transgenic mice used in this study have been described elsewhere (Theobald 1997). These mice express a chimeric class I molecule composed of the alpha 1 & 2 domains of the human A*0201 allele and the alpha 3 domains of the mouse H-2K^b class I molecules. These mice were vaccinated intraperitoneally with 10^8 plaque forming units of recombinant Ad5-LMPpoly or a control adenovirus. After 3 weeks, splenocytes were harvested and tested for epitope-specific T cell responses. These T cell responses were assessed using ELISPOT and in vivo CTL assays as herein described.

## YFLEILWRL [variant of […] dominant in South-East Asian EBV isolates]
[1]
  sensitizing autologous PHA blast to lysis by YLLEMLWRL-specific CTL clone: poorly recognized
HLA A2
  HLA A2 expression on T2 cells (HLA A2 binding): unable to rescue HLA A2 expression; also recorded: significant loss in HLA A2 binding

## YLLEILWRL
[1]
  sensitizing autologous PHA blast to lysis by YLLEMLWRL-specific CTL clone: recognized as efficiently as the wild-type epitope
HLA A2
  HLA A2 expression on T2 cells (HLA A2 binding): significantly increased MHC expression on T2 cells

B1: SEQ ID NO:81: polyepitope protein of thirteen contiguous LMP1 and LMP2 CTL epitopes (protein)
chain: MPYLFWLAAISSCSSCPLSKITYGPVFMCLRRRWRRLTVLLSAWILTALTAGFLIFLCLGGLLTMVVMSNTLLSAWIEDPPFNSLYLLEMLWRLYLQQNWWTLALLVLYSFALIALYLQQNW
CD8+ CTL
  CD8+ CTL responses in polyepitope-immunized mice: induce CD8+CTL responses
